Assay results from patent US20040209850A1, “Methods of treating pain and compositions for use therefor” (TheraQuest Biosciences, LLC, priority 2003, published 2004).

What was measured:
[1] = tested on: mouse; test: Chemically-induced (acetic acid) abdominal constrictions in the mouse; format: in vivo; details: mean ± S.E.M.
Description: Albuterol or vehicle 1 was dosed intraperitoneally (−25 min), followed by a subcutaneous dose of indomethacin or vehicle 2 (−20 min), prior to acetic acid (0.7% v/v) administration (0 min).

[2] = tested on: rat; test: Tail-flick test: antinociception of albuterol, morphine and morphine plus albuterol (% MPE, A50); format: in vivo
Source text: The tail flick test was first described by D'Amour and Smith (1941), and remains essentially unchanged in application. (See generally D'Amour, F. E. and Smith, D. L., “A method for determining loss of pain sensation”, J. Pharmacol. Exp. Therap., 72:74-79(1941); Dewey, D. L. and Harris, L. S., The Tail-flick test. In: S. Ehrenpreis and A. Neidle (Eds.), Methods in Narcotic Research, Marcel Dekker, Inc., New York, 1975, pp. 101-109; and Dubner, R. and Ren, K., “Assessing transient and persistent pain in animals.” In: P. D. Wall and R. Melzack (Eds.), Textbook of Pain, Churchill Livingstone, London, 1999, pp. 359-369). Quite simply, the tail of a rat or mouse is exposed to radiant heat, and the latency to withdraw is determined. The basal heat intensity is set so that naive rats withdraw their tails within 2 to 3 sec. A cut-off latency of 10 sec (i.e., 3 to 4 times basal control value) is commonly employed to prevent tissue damage. An alternative to using radiant heat is to dip the tail into a water bath maintained at a fixed temperature, usually in the moderately noxious range of about 52° C. or 55° C. One advantage of a water bath is that the temperature is kept constant.
The tail-flick test is considered to be very robust in that weak analgesic agents are not detected by this test. […] It is even possible to perform the tail-flick test in lightly anesthetized animals.
Data obtained from the rat tail-flick test conform to a graded dose-response curve. The raw tail withdrawal latencies are converted to a % MPE (% maximal possible effect) by the formula:
% MPE=100×(test latency−basal latency)/(cut-off−basal latency).
This formula constrains the data to fit between 0% MPE and 100% MPE. […] These calculations then allow for the determination of relative potencies of different drugs and allow for the isobolographic determination of possible synergistic effects. Instances where the test latency is less than the basal latency produces a negative % MPE, which is meaningless unless one is measuring hyperalgesia.
Absent any interaction, the dose-effect curves for morphine alone and in the presence of albuterol should be identical.
This manipulation allowed the construction of dose-effect curves and more importantly, the calculation of the A50 (dose required to produce a 50% effect) and the confidence intervals. The data were converted to % MPE based on the equation:
% MPE=(response−baseline)/(8.2−baseline)×100.
Baseline refers to the pre-treatment tail-flick latencies, and 8.2 represents the maximal effect. […] The A50 values and confidence intervals for each of the dose-effect curves were determined from linear regression analysis of the logdose-effect curves. Significant shifts in the dose-effect curves were indicated by Student's t-statistic applied to the A50 values obtained for morphine and morphine plus albuterol, and was performed with our custom-designed data analysis software.
The SEM values are approximate and are derived as a ratio of the SEM of the raw data to the respective mean and adjusted as a function of % MPE.

COc1ccc2c(c1)c(CC(=O)O)c(C)n2C(=O)c1ccc(Cl)cc1 [Indomethacin]
Number of Abdominal Constrictions Exhibited in Time Period (min) Post Acetic Acid ([1]; indomethacin 0.1 mg/kg s.c., 5-10 min): 14.3 ± 2.6 | Number of Abdominal Constrictions Exhibited in Time Period (min) Post Acetic Acid ([1]; indomethacin 0.1 mg/kg s.c., 5-15 min): 23.6 ± 3.7 | Number of Abdominal Constrictions Exhibited in Time Period (min) Post Acetic Acid ([1]; indomethacin 1 mg/kg s.c., 5-10 min): 7.5 ± 2.0 | Number of Abdominal Constrictions Exhibited in Time Period (min) Post Acetic Acid ([1]; indomethacin 1 mg/kg s.c., 5-15 min): 14.5 ± 2.9 | Number of Abdominal Constrictions Exhibited in Time Period (min) Post Acetic Acid ([1]; indomethacin 3 mg/kg s.c., 5-10 min): 6.8 ± 1.7 | Number of Abdominal Constrictions Exhibited in Time Period (min) Post Acetic Acid ([1]; indomethacin 3 mg/kg s.c., 5-15 min): 12.2 ± 3.1 | Number of Abdominal Constrictions Exhibited in Time Period (min) Post Acetic Acid ([1]; indomethacin 5 mg/kg s.c., 5-10 min): 8.3 ± 2.0 | Number of Abdominal Constrictions Exhibited in Time Period (min) Post Acetic Acid ([1]; indomethacin 5 mg/kg s.c., 5-15 min): 14.1 ± 3.4 | Number of Abdominal Constrictions Exhibited in Time Period (min) Post Acetic Acid ([1]; indomethacin 10 mg/kg s.c., 5-10 min): 6.8 ± 1.7 | Number of Abdominal Constrictions Exhibited in Time Period (min) Post Acetic Acid ([1]; indomethacin 10 mg/kg s.c., 5-15 min): 11.9 ± 2.9 | Number of Abdominal Constrictions Exhibited in Time Period (min) Post Acetic Acid ([1]; indomethacin 30 mg/kg s.c., 5-10 min): 10.5 ± 2.3 | Number of Abdominal Constrictions Exhibited in Time Period (min) Post Acetic Acid ([1]; indomethacin 30 mg/kg s.c., 5-15 min): 17.6 ± 3.2 | Number of Abdominal Constrictions Exhibited in Time Period (min) Post Acetic Acid ([1]; indomethacin 50 mg/kg s.c., 5-10 min): 1.4 ± 0.6 | Number of Abdominal Constrictions Exhibited in Time Period (min) Post Acetic Acid ([1]; indomethacin 50 mg/kg s.c., 5-15 min): 4.5 ± 1.3

CN1CC[C@]23c4c5ccc(O)c4O[C@H]2[C@@H](O)C=C[C@H]3[C@H]1C5 [Morphine]
A50 (95% confidence interval), dose required to produce a 50% effect ([2]; 30 minutes after injection): 4.53 mg/kg | A50 (95% confidence interval), dose required to produce a 50% effect ([2]; 30 minutes after injection, listed as Morphine alone): 4.53 (3.92 to 5.24) mg/kg | A50 (95% confidence interval), dose required to produce a 50% effect ([2]; 60 minutes after injection): 9.94 mg/kg | A50 (95% confidence interval), dose required to produce a 50% effect ([2]; 60 minutes after injection, listed as Morphine alone): 9.94 (9.84 to 10.04) mg/kg | dose-dependency of antinociception (FIG. 1) ([2]; dose-effect curves as % MPE): demonstrated dose-dependent antinociception | antinociceptive effect (in words) ([2]; morphine 0.3 mg/kg to 2.5 mg/kg): minimal effects | Antinociceptive effect (as % MPE) ([2]; morphine alone 0.3125 mg/kg, 30 minutes): 25.86 ± 3.31 % MPE | Antinociceptive effect (as % MPE) ([2]; morphine alone 0.3125 mg/kg, 60 minutes): 24.14 ± 1.27 % MPE | Antinociceptive effect (as % MPE) ([2]; morphine alone 0.625 mg/kg, 30 minutes): 22.41 ± 1.82 % MPE | Antinociceptive effect (as % MPE) ([2]; morphine alone 0.625 mg/kg, 60 minutes): 20.69 ± 1.72 % MPE | Antinociceptive effect (as % MPE) ([2]; morphine alone 1.25 mg/kg, 30 minutes): 33.33 ± 2.27 % MPE | Antinociceptive effect (as % MPE) ([2]; morphine alone 1.25 mg/kg, 60 minutes): 19.3 ± 2.14 % MPE | Antinociceptive effect (as % MPE) ([2]; morphine alone 2.5 mg/kg, 30 minutes): 28.57 ± 2.04 % MPE | Antinociceptive effect (as % MPE) ([2]; morphine alone 2.5 mg/kg, 60 minutes): 21.43 ± 1.69 % MPE | Antinociceptive effect (as % MPE) ([2]; morphine alone 5 mg/kg, 30 minutes): 44.07 ± 3.6 % MPE | Antinociceptive effect (as % MPE) ([2]; morphine alone 5 mg/kg, 60 minutes): 13.56 ± 2.19 % MPE | Antinociceptive effect (as % MPE) ([2]; morphine alone 10 mg/kg, 30 minutes): 91.07 ± 14.19 % MPE | Antinociceptive effect (as % MPE) ([2]; morphine alone 10 mg/kg, 60 minutes): 50 ± 9.26 % MPE
